Measurements as given in article PMC10907374, “G2019S selective LRRK2 kinase inhibitor abrogates mitochondrial DNA damage” (NPJ Parkinson's Disease, 2024).
“Also recorded” adds a separate entry of the source.

What was measured:
[1] = tested on: WT-LRRK2 expressing HEK293 cells; assay: Mito DNADX mtDNA damage and mtDNA copy number in WT-LRRK2 overexpressing HEK293 cells; format: cell-based, human; details: 10 nM-1 μM, 2 h
Procedure: (§1) Cells were plated at a density of 0.3 × 10^6 cells in a 6-well dish and treated at ~40–50% confluency. At the time of harvest, cells were collected and either protein collected or DNA extracted as described below.
(§2) The tool compound EB-42168 was discovered as part of a small molecule discovery program aimed at identifying LRRK2 kinase inhibitors that are selective for the pathogenic G2019S LRRK2 variant. […] MLi‐2 inhibits WT LRRK2 ~1000‐fold more than EB‐42168[20].
(§3) Cells were collected and the nuclei and mitochondria were isolated as previously described. DNA was extracted from LRRK2-WT and G2019S-LRRK2 cells, and wild-type and LRRK2^G2019S/G2019S KI cells using QuickGene DNA Whole Blood Kit L (Autogen, fk-dbl). PD patient LRRK2 G2019S and healthy subject control-derived LCL DNA was extracted using the QuickGene DNA Tissue Kit L (Autogen, fk-dtl), utilizing a semi-automated system (Autogen, QuickGene-610L). For the Autogen system, the pellet was resuspended in 2 ml of 1X PBS, and the standard manufacturer’s protocol was conducted as if the cell suspension was whole blood. DNA was eluted with EDTA-free buffer, and quality was assessed using a Spectradrop microvolume microplate (Molecular Devices). Double-stranded DNA was quantified using Quant-iT Picogreen dsDNA assay (Thermo Fisher) as previously described.
DNA damage in the mitochondrial genome was measured utilizing Mito DNADX, an assay that we recently developed and described, currently the most robust way of measuring damage in mtDNA[39],[82]. The Mito DNADX assay combines optimized polymerase chain reaction (PCR) parameters using a high-fidelity DNA polymerase and a fluorescent dye that binds to double-stranded DNA that permits the real-time quantification of DNA damage in distinct loci in a 96-well platform. The premise of the Mito DNADX assay involves amplification of a specific mitochondrial PCR fragment in which less PCR product will be amplified when mtDNA damage or lesions block the ability of the DNA polymerase to replicate. As such, mtDNA damage or mtDNA repair intermediates that slow down or impair DNA polymerase progression will be detected. Therefore, equal amounts of sample DNA amplified under identical conditions can be directly compared across conditions to determine the mtDNA lesion frequency. Mitochondrial DNA lesion frequency was performed as previously described. Briefly, 15 ng of DNA was used to amplify long or short amplicons of the mitochondrial genome (as determined by primer sets). The amount of amplification is directly proportional to the number of undamaged DNA templates. Average lesion frequency is calculated as described. […] Each biological DNA sample was analyzed in technical triplicate. […]

[2] = tested on: G2019S-LRRK2 expressing HEK293 cells; assay: Mito DNADX mtDNA damage and mtDNA copy number in G2019S-LRRK2 overexpressing HEK293 cells; format: cell-based, human; details: 10 nM-1 μM, 2 h
Procedure: as §1, §2, §3
DNA damage in the mitochondrial genome was measured utilizing Mito DNADX, an assay that we recently developed and described, currently the most robust way of measuring damage in mtDNA[39],[82]. The Mito DNADX assay combines optimized polymerase chain reaction (PCR) parameters using a high-fidelity DNA polymerase and a fluorescent dye that binds to double-stranded DNA that permits the real-time quantification of DNA damage in distinct loci in a 96-well platform. The premise of the Mito DNADX assay involves amplification of a specific mitochondrial PCR fragment in which less PCR product will be amplified when mtDNA damage or lesions block the ability of the DNA polymerase to replicate. As such, mtDNA damage or mtDNA repair intermediates that slow down or impair DNA polymerase progression will be detected. Therefore, equal amounts of sample DNA amplified under identical conditions can be directly compared across conditions to determine the mtDNA lesion frequency. Mitochondrial DNA lesion frequency was performed as previously described. Briefly, 15 ng of DNA was used to amplify long or short amplicons of the mitochondrial genome (as determined by primer sets). The amount of amplification is directly proportional to the number of undamaged DNA templates. Average lesion frequency is calculated as described. Results are presented with the values in experimental samples relative to control samples (normalized to 1 lesion per 10 kb). PCR reactions included KAPA Long Range HotStart DNA Polymerase (KAPA Biosystems)[49]. Each biological DNA sample was analyzed in technical triplicate. Limitations of the Mito DNADX assay have been recently discussed.

[3] = tested on: wild-type HEK293 cells; assay: Mitophagy (Mtphagy dye / Lyso dye live cell imaging) in wild-type HEK293 cells; format: cell-based, human; details: 100 nM 2 h pre-treatment; for basal levels of mitophagy: Mitophagy dye intensity or co-localization; for FCCP-stimulated mitophagy: then 20 μM FCCP 3 h
Procedure: (§4) Thirty-five mm cell culture dishes (Cellvis, D35-20-1.5-N) were coated with poly-D-lysine (Sigma-Aldrich, P7280-5MG) for 5 min, washed with cell culture grade water (Sigma-Aldrich, W3500), and allowed to dry for at least 1 h before plating. LRRK2^G2019S/G2019S KI HEK293 and wild-type cells were passaged as described above and plated at 300,000 cells per well on poly-D-lysine-coated dishes. […] Following this, cells were washed three times with serum-free medium, and a working solution of Mtphagy dye (Dojindo, MD-01) was prepared in serum-free medium according to manufacturer protocols. Cultures were incubated with Mtphagy dye for 30 min, followed by three washes with serum-free medium. Complete medium was used to prepare a 20 µM FCCP (Abcam, ab120081) or DMSO control treatment solution, which was used to treat cells for 3 h. Following treatment, cells were then washed 3 times with serum-free medium, and a working solution of Lyso dye (Dojindo, MD-01) was prepared in serum-free medium and used to treat cells for 30 min. Complete medium lacking phenol red was prepared for use in confocal live cell imaging by combining phenol red-free DMEM/F-12 (Fisher Scientific, 21-041-025), FBS (VWR, 97068-085), and penicillin-streptomycin (VWR, 45000-652). Following Lyso dye treatment, cultures were washed three times with phenol red-free medium, followed by adding fresh phenol red-free medium to cell culture dishes. MitoBright LT Deep Red (Dojindo, MT12-12) was diluted in growth medium to prepare a 0.1 μmol/l solution and was used to treat cells for 15 min for total mitochondrial staining. Live cell imaging (5% CO2, 37 °C) was performed using a Zeiss LSM 880 Confocal Laser Scanning Microscope with Zen Black software. On average, ~70 cells were analyzed for each condition per each experimental replicate.
(§5) Following imaging, files were processed using Zen Blue software, and TIFF files of each channel were obtained for analysis. ImageJ was used to obtain readouts for image analysis. All images were converted to 8-bit format. For each respective image, the Lyso dye channel was used to create a mask delineating each lysosomal focus as a region of interest (ROI). Thresholding parameters were adjusted between biological replicates as required to ensure that the Lyso dye ROI encompassed all lysosome foci appropriately, and this was used to create a mask. This was then applied to the corresponding Mtphagy dye channel image, allowing collection of Mtphgy fluorescence intensity readouts for each lysosomal focus. Outliers were removed using Prism software (GraphPad) with the coefficient of removal set to 0.2%. Data was thresholded to exclude lysosomes not containing mitochondria by excluding fluorescence values with intensities equal to or below background levels. The number of ROIs remaining after thresholding was used to quantify lysosomes containing fluorescing mitochondria (mitolysosomes). Fluorescence intensity values for all mitolysosomes per condition per biological replicate were averaged to obtain a value of mitophagy fluorescence intensity per mitolysosome. For each replicate, all values of average mitolysosome fluorescence intensity were normalized to wild-type (vehicle treated) levels for the given replicate.

[4] = tested on: LRRK2^G2019S/G2019S KI HEK293 cells; assay: Mitophagy (Mtphagy dye / Lyso dye live cell imaging) in LRRK2 G2019S/G2019S KI HEK293 cells; format: cell-based, human; details: 100 nM 2 h pre-treatment; for basal levels of mitophagy: Mitophagy dye intensity or co-localization; for FCCP-stimulated mitophagy defect: then 20 μM FCCP 3 h
Procedure: as §4, §5

[5] = tested on: G2019S LRRK2; details: cited from earlier work

Compound: CC1=C(C(=O)Nc2ccc3[nH]nc(-c4ccnc(N5CCOCC5)c4)c3c2)C(C)(C)n2nnnc2N1C [EB-42168]
- mtDNA copy number [1]: not different; also recorded: did not change
- mtDNA damage [1]: No effect
- mtDNA copy number [2]: not different; also recorded: did not change
- mtDNA damage [2]: normalizing damage to WT-LRRK2 control levels (or lower)
- mtDNA damage ([2]; listed as EB-42618): abrogated
- basal levels of mitophagy [3]: did not impact
- FCCP-stimulated mitophagy [3]: blocked
- basal levels of mitophagy [4]: did not impact
- FCCP-stimulated mitophagy defect [4]: failed to rescue
- fold more potent inhibition of G2019S LRRK2 than wild-type LRRK2 [5]: 100 fold

Compound: C[C@@H]1CN(c2cc(-c3n[nH]c4ccc(OC5(C)CC5)cc34)ncn2)C[C@H](C)O1 [MLi-2, reference compound]
- mtDNA copy number [1]: no effect; also recorded: unaltered
- mtDNA damage [1]: trend toward an increase in mtDNA damage
- mtDNA copy number [2]: no effect; also recorded: unaltered
- mtDNA damage [2]: restored mtDNA damage to WT-LRRK2 control levels
- basal levels of mitophagy [3]: did not impact
- FCCP-stimulated mitophagy [3]: blocked
- basal levels of mitophagy [4]: did not impact
- FCCP-stimulated mitophagy defect [4]: failed to rescue
- potency in recombinant cell lines expressing WT-LRRK2 or G2019S-LRRK2 [5]: equipotent
